According to patent US4678800A, “Gamma-r-glutamoyl derivatives” (Ciba-Geigy Corporation, priority 1984, dated 1987):
pIC50: −log10 of the molar value.

Columns and labels:
[1] = tested on: angiotensin I converting enzyme; test: inhibition of the angiotensin I pressor response in anesthetized normotensive rats; type: in vivo, rat; conditions: intravenous dose as low as 0.1 mg/kg
Description: The enzyme renin, normally causes specific hydrolysis of the circulating protein renin-substrate. This hydrolysis generates angiotensin I, which is further hydrolyzed by the action of said converting enzyme to the potent vasoconstrictor angiotensin II. The inhibition of said enzyme prevents the generation of angiotensin II from I and, therefore, attenuates any pressure response following an angiotensin I challenge.
The corresponding in vivo test is performed with male, normotensive rats, which are anesthetized with 100-120 mg/kg i.p. of sodium ethyl-(1-methylpropyl)-malonylthiourea. A femoral artery and saphenous vein are cannulated for direct blood pressure measurement and i.v. administration of angiotensin I and compounds of this invention. After the basal blood pressure is stabilized, pressor responses to 3 challenges of 0.33 μg/kg of angiotension I i.v. , in 5 minute intervals, are obtained. Such pressure responses are again obtained 5, 10, 15, 30 and 60 minutes after either i.v. or p.o. administration (stomach tube) of the compounds to be tested, and compared with the initial responses. Any observed decrease of said pressor response is an indication of angiotensin I converting enzyme inhibition, ranging up to 80% or greater after 10 mg/kg i.v., or lower doses, which decrease may be sustained up to 60 minutes.

[2] = target: T1, angiotensin-converting enzyme isolated from lungs of adult male rabbits (Oryctolagus cuniculus, UniProt P12822); test: in vitro inhibition of the angiotensin-converting enzyme (hippuryl-histidyl-leucine substrate); type: biochemical; conditions: rabbit lung enzyme, 37° for 30 minutes
T1 construct: angiotensin-converting enzyme isolated from lungs of adult male rabbits; from tissue; host or cells: lungs of adult male rabbits
T1 sequence (P12822 34-1310): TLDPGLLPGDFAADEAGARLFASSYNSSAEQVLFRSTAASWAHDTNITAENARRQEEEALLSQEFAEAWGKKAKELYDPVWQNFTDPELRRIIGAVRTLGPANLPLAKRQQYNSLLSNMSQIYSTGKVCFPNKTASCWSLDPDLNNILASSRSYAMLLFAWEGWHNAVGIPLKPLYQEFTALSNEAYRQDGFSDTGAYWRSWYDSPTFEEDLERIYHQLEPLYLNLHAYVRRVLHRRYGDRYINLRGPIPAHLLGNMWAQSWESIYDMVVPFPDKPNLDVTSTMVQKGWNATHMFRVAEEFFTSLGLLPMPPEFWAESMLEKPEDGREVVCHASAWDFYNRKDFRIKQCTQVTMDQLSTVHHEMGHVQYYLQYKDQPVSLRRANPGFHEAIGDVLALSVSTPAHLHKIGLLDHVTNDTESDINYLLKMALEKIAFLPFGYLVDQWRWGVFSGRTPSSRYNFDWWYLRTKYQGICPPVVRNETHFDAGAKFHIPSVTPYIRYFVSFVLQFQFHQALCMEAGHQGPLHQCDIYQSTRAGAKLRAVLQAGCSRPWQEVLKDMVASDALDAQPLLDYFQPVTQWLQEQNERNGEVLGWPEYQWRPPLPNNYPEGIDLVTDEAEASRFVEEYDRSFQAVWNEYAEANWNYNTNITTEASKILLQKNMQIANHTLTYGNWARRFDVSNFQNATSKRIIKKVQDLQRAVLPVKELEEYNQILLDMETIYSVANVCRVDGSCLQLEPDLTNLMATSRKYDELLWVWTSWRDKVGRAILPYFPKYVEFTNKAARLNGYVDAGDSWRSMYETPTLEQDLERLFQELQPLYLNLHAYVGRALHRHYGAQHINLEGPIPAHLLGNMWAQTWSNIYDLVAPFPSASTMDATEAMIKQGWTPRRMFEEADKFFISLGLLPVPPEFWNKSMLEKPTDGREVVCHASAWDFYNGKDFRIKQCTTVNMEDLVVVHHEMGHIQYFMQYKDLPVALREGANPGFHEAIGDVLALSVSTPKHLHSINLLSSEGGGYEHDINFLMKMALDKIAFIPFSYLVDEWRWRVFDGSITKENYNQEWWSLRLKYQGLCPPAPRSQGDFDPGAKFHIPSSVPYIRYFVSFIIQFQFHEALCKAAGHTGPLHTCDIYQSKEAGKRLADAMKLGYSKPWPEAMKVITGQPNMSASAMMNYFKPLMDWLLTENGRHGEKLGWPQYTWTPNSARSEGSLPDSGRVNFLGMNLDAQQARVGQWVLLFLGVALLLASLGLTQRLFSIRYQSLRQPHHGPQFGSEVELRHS
Description: Biophys. Acta 293, 451 (1973). According to this method, said compounds are dissolved at about 1 mM concentrations in phosphate buffer, externally cooled with ice. To these solutions various μl of histidyl-leucine in phosphate buffer are added, followed by 100 μl of 5 mM hippuryl-histidyl-leucine in phosphate buffer and 50 μl of the angiotensin-converting enzyme isolated from lungs of adult male rabbits, which is freshly prepared in Tris buffer containing potassium and magnesium chloride, as well as sucrose. Said solutions are incubated at 37° for 30 minutes and combined with 0.75 m- of 0.6 N aqueous sodium hydroxide to stop further reaction. Then 100 μl of o-phthalaldehyde are added at room temperature, and 10 minutes later 100 μl of 6N hydrochloric acid are also added. These samples are read against water in a spectrophotometer set at 360 nm, and the optical densities thereof estimated. They are corrected for the standard curve via a conversion factor expressing nanomoles of histidyl-leucine formed during said 30 minute incubation period. The results are plotted against drug concentration to determine the IC50, i.e., the drug concentration which gives half the activity of the control sample containing no drug. Again, said representative members of the compounds of this invention are very effective in this in vitro test system.

[3] = tested on: spontaneous hypertensive rat; test: in vivo lowering effect on blood pressure and heart rate in hypertensive rats; conditions: dose of 10 mg/kg p.o. or lower
Description: This is demonstrable by in vivo or in vitro animal tests, using advantageously mammals, e.g., rats, cats, dogs or isolated organs thereof, as test objects. The animals may either be normotensive or hypertensive e.g., genetically hypertensive rats, or renal hypertensive rats and dogs, and sodium-depleted dogs. Said compounds can be applied to them enterally or parenterally, advantageously orally or intravenously, for example within gelatin capsules or in the form of starch suspensions or aqueous solutions, respectively. The applied dosage may range between about 0.01 and 50 mg/kg/day, preferably between about 0.1 and 25 mg/kg/day, advantageously between about 0.1 and 10 mg/kg/day.
The in vivo lowering effect on the blood pressure is recorded either directly by means of a catheter, for example placed in the dog's femoral artery, or indirectly by sphygmomanometry at the rat's tail, and a transducer, expressing the blood pressure prior and after dosing in mm Hg. Thus, for example, the representative members of the compounds of this invention, illustrated by the examples herein, are effective in hypertensive rats and at p.o. doses as low or lower than 10 mg/kg/day.

**Q.** `O=C(N[C@H](CCC(=O)N1c2ccccc2C[C@H]1C(=O)O)C(=O)O)OCc1ccccc1` [Example 1, 1-(N-Benzyloxycarbonyl-γ-R-glutamyl)indoline-2-S-carboxylic acid] was tested. Which “inhibition of the pressor response following angiotensin I challenge” value [1] did it give?
**A.** about 70%

**Q.** What about the pIC50 [2] of the same molecule?
**A.** ~8.15

**Q.** What about the “decrease of heart rate” value [3] of the same molecule?
**A.** decrease the heart rate

**Q.** And the “lowering of blood pressure” value [3]?
**A.** lower blood pressure

**Q.** For `O=C(N[C@H](CCC(=O)N1c2ccccc2C[C@H]1C(=O)O)C(=O)O)c1cccnc1` [Example 5, 1-(N-Nicotinoyl-γ-R-glutamyl)-indoline-2S-carboxylic acid], which “decrease of heart rate” value [3] is on record?
**A.** decrease the heart rate

**Q.** And the “lowering of blood pressure” value [3]?
**A.** lower blood pressure
